These are literature values, as cited in patent US20240366562A1, “GYNECOMASTIA AND/OR MASTALGIA TREATMENT” (priority 2021, published 2024).

In series [1] the test system is estrogen-dependent human MCF-7 breast cancer cell line.
A further series concerns the target T1, estrogen receptor (Homo sapiens, UniProt P03372).
T1 sequence (P03372 1-595): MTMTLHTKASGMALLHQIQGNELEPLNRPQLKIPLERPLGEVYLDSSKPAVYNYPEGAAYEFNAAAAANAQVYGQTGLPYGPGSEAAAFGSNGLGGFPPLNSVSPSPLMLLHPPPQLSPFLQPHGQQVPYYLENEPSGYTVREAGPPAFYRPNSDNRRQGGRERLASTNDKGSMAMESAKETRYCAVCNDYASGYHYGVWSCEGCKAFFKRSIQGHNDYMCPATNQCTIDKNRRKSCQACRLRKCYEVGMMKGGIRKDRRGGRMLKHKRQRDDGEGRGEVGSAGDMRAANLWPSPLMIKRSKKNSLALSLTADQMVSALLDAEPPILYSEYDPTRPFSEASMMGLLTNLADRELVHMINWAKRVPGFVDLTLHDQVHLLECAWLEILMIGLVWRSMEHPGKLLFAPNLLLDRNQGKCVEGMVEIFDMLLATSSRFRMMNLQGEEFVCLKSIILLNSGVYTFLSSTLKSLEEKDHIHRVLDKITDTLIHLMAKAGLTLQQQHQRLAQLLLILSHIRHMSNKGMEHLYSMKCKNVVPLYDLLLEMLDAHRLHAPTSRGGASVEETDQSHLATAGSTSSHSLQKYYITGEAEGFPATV

A further series concerns mammary tumors. The conditions noted are these: rodents.
The conditions of series [2]: human subjects who ingested I3C.
The conditions of series [3]: women taking Tamoxifen.

Turning to `CC/C(=C(\c1ccccc1)c1ccc(OCCN(C)C)cc1)c1ccccc1` [Tamoxifen, reference compound], in the series with estrogen pathway, the Competes with estrogen result is “yes”, the “Enhances 2HE1 excretion” value is on record as “no”, the Inhibits estrogen synthesis result is listed as “no” and the Lowers circulating estrogen result was “no”. The “Triggers degradation of ERα” value with estrogen pathway is on record as “no”.

Turning to `OCc1c[nH]c2ccccc12` [Compound I3C, Indole-3-carbinole], in the series with estrogen pathway, the Competes with estrogen result is “no”, the “Enhances 2HE1 excretion” value is on record as “yes”, the Inhibits estrogen synthesis result was “yes” and the Lowers circulating estrogen entry is listed as “yes”. Also, in the series with estrogen pathway, the “Triggers degradation of ERα” value is given as “yes”. In addition, the “Expression of CDK6” value in series [1] is recorded as “down-regulates”. Moreover, the “Competition with estrogen for estrogen receptor binding” value at estrogen receptor was “fail to compete”. For the same compound, in the series on mammary tumors, the “Formation of spontaneous and carcinogen-induced mammary tumors” value is reported as “reduce the formation”; the Side effects entry is “no apparent side effects”. For the same compound, the Side effects entry in series [2] was “no side effects”.

Turning to `c1ccc2c(Cc3c[nH]c4ccccc34)c[nH]c2c1` [DIM, 3,3′-diindolylmethane], the Tamoxifen metabolites result in series [3] was “decreases in Tamoxifen metabolites”.
